Source: patent US20250230193A1, “CYCLIC COMPOUND HAVING SELECTIVE KRAS INHIBITORY EFFECT ON HRAS AND NRAS” (CHUGAI SEIYAKU KABUSHIKI KAISHA, priority 2022, published 2025)
Where a SMILES comes first, the peptide text is derived from it. Bridges are numbered along the chain shown (N, C = ends). [ ]: non-standard residue; d: D form. The star is where a group is joined. hPhe(3-Cl-4-CF3) = N[C@@H](CCc1ccc(C(F)(F)F)c(Cl)c1)C(=O)O; NMePhe(4-Me) = CN[C@@H](Cc1ccc(C)cc1)C(=O)O; NMeGly(cPent) = CN[C@H](C(=O)O)C1CCCC1; NMeD = CN[C@@H](CC(=O)O)C(=O)O; NMeL = CN[C@@H](CC(C)C)C(=O)O; Morpholide = C1CN(*)CCO1; Ac5c = NC1(C(=O)O)CCCC1; NEtG = CCNCC(=O)O; Sar = CNCC(=O)O

Assays:
[1] = target: GDP-bound HRAS wild-type protein (Homo sapiens, UniProt P01112); test: Binding to HRAS by surface plasmon resonance (SPR), Single Cycle Kinetics
GDP-bound HRAS wild-type protein, sequence (P01112 whole entry): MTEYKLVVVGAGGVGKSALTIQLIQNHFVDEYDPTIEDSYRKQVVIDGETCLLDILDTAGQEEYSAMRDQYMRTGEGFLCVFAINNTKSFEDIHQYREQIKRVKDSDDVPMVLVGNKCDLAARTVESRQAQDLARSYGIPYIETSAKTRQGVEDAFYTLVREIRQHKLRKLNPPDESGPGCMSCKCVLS

[2] = target: GDP-bound NRAS wild-type protein (Homo sapiens, UniProt P01111); test: Binding to NRAS by surface plasmon resonance (SPR), Single Cycle Kinetics
GDP-bound NRAS wild-type protein, sequence (P01111 whole entry): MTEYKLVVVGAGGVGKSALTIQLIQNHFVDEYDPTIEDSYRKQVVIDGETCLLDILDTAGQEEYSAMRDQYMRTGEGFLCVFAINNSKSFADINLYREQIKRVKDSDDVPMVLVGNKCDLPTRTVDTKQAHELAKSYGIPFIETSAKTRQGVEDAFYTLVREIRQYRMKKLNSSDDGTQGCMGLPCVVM

CCC[C@H]1C(=O)N[C@@H]([C@@H](C)CC)C(=O)N(C)CC(=O)N(C)[C@H]2C/C=C\CCN(C2=O)[C@@H](Cc2ccc(C(F)(F)F)cc2)C(=O)N(C)CC(=O)N[C@@H](CCc2cc(F)c(C(F)(F)F)c(F)c2)C(=O)N2C[C@H](OCC)C[C@H]2C(=O)NC2(CC(F)(F)C2)C(=O)N(C)[C@@H](C2CCCC2)C(=O)N(C)[C@H](C(=O)N(C)CC)CC(=O)N1C [PP1735]
HRAS/KRAS (ratio of KD value for HRAS to KD value for KRAS) ([1]; KD ratio, GDP-bound HRAS wild-type vs GDP-bound KRAS wild-type, SPR): A (a compound having 10 or more and less than 20 is denoted as A)
NRAS/KRAS (ratio of KD value for NRAS to KD value for KRAS) ([2]; KD ratio, GDP-bound NRAS wild-type vs GDP-bound KRAS wild-type, SPR): AA (a compound having 20 or more is denoted as AA)

CCC[C@H]1C(=O)N[C@@H]([C@@H](C)CC)C(=O)N(C)CC(=O)N(C)[C@H]2C/C=C\CCN(C2=O)[C@@H](Cc2ccc(C)cc2)C(=O)N(C)CC(=O)N[C@@H](CCc2ccc(C(F)(F)F)c(Cl)c2)C(=O)N2C[C@H](CC)C[C@H]2C(=O)NC2(CC(C)(C)C2)C(=O)N(C)[C@@H](C2CCCC2)C(=O)N(C)[C@H](C(=O)N(C)C)CC(=O)N1C [PP2212]
HRAS/KRAS (ratio of KD value with respect to HRAS to KD value with respect to KRAS) ([1]; SPR, GDP-bound HRAS wild-type vs GDP-bound KRAS wild-type): B (a compound having 3 or more and less than 10 is denoted as B)
NRAS/KRAS (ratio of KD value with respect to NRAS to KD value with respect to KRAS) ([2]; SPR, GDP-bound NRAS wild-type vs GDP-bound KRAS wild-type): A (a compound having 10 or more and less than 20 is denoted as A)

CC[C@H](C)[C@@H]1NC(=O)[C@H](CC(C)C)N(C)C(=O)C[C@@H](C(=O)N2CCOCC2)N(C)C(=O)[C@H](C2CCCC2)N(C)C(=O)C2(CCCC2)NC(=O)[C@@H]2CCCN2C(=O)[C@H](CCc2ccc(C(F)(F)F)c(Cl)c2)NC(=O)CN(C)C(=O)[C@H](Cc2ccc(C)cc2)N(C)C(=O)CN(CC)C(=O)CN(C)C1=O [PP0019] ([NMeL]I[Sar][NEtG][NMePhe(4-Me)][Sar][hPhe(3-Cl-4-CF3)]P[Ac5c][NMeGly(cPent)][NMeD]-Morpholide; lactam N-11)
HRAS/KRAS (ratio of KD for GDP-bound HRAS wild-type to KD for KRAS) ([1]; KD ratio HRAS/KRAS, SPR): C (A compound having a KD ratio of 0.1 or more and less than 3 is denoted as C)
NRAS/KRAS (ratio of KD for GDP-bound NRAS wild-type to KD for KRAS) ([2]; KD ratio NRAS/KRAS, SPR): C (A compound having a KD ratio of 0.1 or more and less than 3 is denoted as C)

CCO[C@@H]1C[C@H]2C(=O)NC3(CC(C)(C)C3)C(=O)N(C)[C@@H](C(CC)CC)C(=O)N(C)[C@H](C(=O)N(C)C)CC(=O)N(C)[C@@H](COC)C(=O)N[C@@H]([C@@H](C)CC)C(=O)N(C3CC3)CC(=O)N(C)[C@H]3C/C=C\CCN(C3=O)[C@@H](CC3CCCCC3)C(=O)N(C)CC(=O)N[C@@H](CCc3cc(F)c(C(F)(F)F)c(F)c3)C(=O)N2C1 [PP2564]
HRAS/KRAS (ratio of KD value with respect to GDP-bound HRAS wild-type protein to KD value with respect to KRAS) ([1]; KD ratio HRAS/KRAS, class symbols): A (a compound having 10 or more and less than 20 is denoted as A)
NRAS/KRAS (ratio of KD value with respect to GDP-bound NRAS wild-type protein to KD value with respect to KRAS) ([2]; KD ratio NRAS/KRAS, class symbols): A (a compound having 10 or more and less than 20 is denoted as A)

CCCO[C@@H]1C[C@H]2C(=O)NC3(CC(C)(C)C3)C(=O)N(C)[C@@H](C3CCCC3)C(=O)N(C)[C@H](C(=O)N3CCCC3)CC(=O)N(C)[C@H]3CCCCc4ccc(cc4)C[C@@H](C(=O)N(C)CC(=O)N[C@@H](CCc4ccc(C(F)(F)F)c(OC)c4)C(=O)N2C1)N1CC/C=C\C[C@@H](C1=O)N(C)C(=O)CN(C)C(=O)[C@H]([C@@H](C)CC)NC3=O [PP3094, (1S,7S,11R,13S,19S,22S,26S,29S,35S,37Z)-19-cyclopentyl-7-[2-[3-methoxy-4-(trifluoromethyl)phenyl]ethyl]-3,3′,3′,18,21,25,31,34-octamethyl-29-[(1S)-1-methylpropyl]-11-propoxy-22-(pyrrolidine-1-carbonyl)spiro[3,6,9,15,18,21,25,28,31,34,41-undecazapentacyclo[24.15.9.2^43,46.1^35,41.0^9,13]tripentaconta-37,43(52),44,46(51)-tetraene-16,1′-cyclobutane]-2,5,8,14,17,20,24,27,30,33,53-undecone]
HRAS/KRAS (ratio of KD value with respect to GDP-bound HRAS wild-type protein to KD value with respect to KRAS) ([1]; KD ratio HRAS/KRAS, SPR, GDP-bound wild-type proteins): B (a compound having 3 or more and less than 10 is denoted as B)
NRAS/KRAS (ratio of KD value with respect to GDP-bound NRAS wild-type protein to KD value with respect to KRAS) ([2]; KD ratio NRAS/KRAS, SPR, GDP-bound wild-type proteins): A (a compound having 10 or more and less than 20 is denoted as A)

CCO[C@@H]1C[C@H]2C(=O)NC3(CCC3)C(=O)N(C)[C@@H](C3CCCC3)C(=O)N(C)[C@H](C(=O)N3CCOCC3)CC(=O)N(C)[C@@H](C)C(=O)N[C@@H]([C@@H](C)CC)C(=O)N(C)CC(=O)N(C)[C@H]3CCCCCN(C3=O)[C@@H](Cc3ccc(C(F)(F)F)cc3)C(=O)N(C)CC(=O)N[C@@H](CCc3cc(F)c(C(F)(F)F)c(F)c3)C(=O)N2C1 [PP0474]
HRAS/KRAS (ratio of KD value with respect to GDP-bound HRAS wild-type protein to KD value with respect to KRAS) ([1]; KD ratio HRAS/KRAS, SPR): B (a compound having 3 or more and less than 10 is denoted as B)
NRAS/KRAS (ratio of KD value with respect to GDP-bound NRAS wild-type protein to KD value with respect to KRAS) ([2]; KD ratio NRAS/KRAS, SPR): B (a compound having 3 or more and less than 10 is denoted as B)

CCO[C@@H]1C[C@H]2C(=O)NC3(CCC3)C(=O)N(C)[C@@H](C(CC)CC)C(=O)N(C)[C@H](C(=O)N(C)CCOC)CC(=O)N(C)[C@@H](CC)C(=O)N[C@@H]([C@@H](C)CC)C(=O)N(C)CC(=O)N(C)[C@H]3C/C=C\CCN(C3=O)[C@@H](Cc3ccc(C(F)(F)F)cc3)C(=O)N(C)CC(=O)N[C@@H](CCc3cc(F)c(C(F)(F)F)c(F)c3)C(=O)N2C1 [PP1330]
HRAS/KRAS (ratio of KD value for GDP-bound HRAS wild-type protein to KD value for KRAS) ([1]; SPR, KD ratio class): A (a compound having 10 or more and less than 20 is denoted as A)
NRAS/KRAS (ratio of KD value for GDP-bound NRAS wild-type protein to KD value for KRAS) ([2]; SPR, KD ratio class): AA (a compound having 20 or more is denoted as AA)
